Test results reported in ChEMBL document CHEMBL4765321, “Discovery of new thieno[3,2-d]pyrimidine derivatives targeting EGFR NSCLCs by the conformation constrained strategy” (Eur J Med Chem, 2020).
Calls of active or inactive are those of the source. The rule behind the calls is not given here.

Experiments:
[1] = tested on: PC-9; experiment: Antiproliferative activity against human PC9 cells harboring EGFRdel19 mutant assessed as reduction in cell viability measured after 72 hrs by MTT assay; format: functional, cell-based; conditions: PC-9, 72 h
[2] = tested on: NCI-H1975; experiment: cells; format: functional, cell-based; conditions: Homo sapiens, NCI-H1975, 72 h
[3] = tested on: L02; experiment: Cytotoxicity against human L0-2 cells assessed as reduction in cell viability measured after 72 hrs by MTT assay; format: ADME, cell-based; conditions: L02, 72 h
[4] = biological target: Epidermal growth factor receptor (Homo sapiens, UniProt P00533, L858R/T790M); experiment: Inhibition of N-terminal GST-fused human EGFR L858R/T790M double mutant cytoplasmic domain (669 to 1210 residues) expressed in baculovirus expression system using 5-FAM-EEPLYWSFPAKKK-CONH2 as substrate incubated for 20 mins by Mobility shift assay
[5] = tested on: A549; experiment: Antiproliferative activity against human A549 cells harboring wild type EGFR assessed as reduction in cell viability measured after 72 hrs by MTT assay; format: cell-based; conditions: A549, 72 h
[6] = biological target: T1, Epidermal growth factor receptor (Homo sapiens, UniProt P00533); experiment: Inhibition of N-terminal GST-fused human wild type EGFR cytoplasmic domain (669 to 1210 residues) expressed in baculovirus expression system using 5-FAM-EEPLYWSFPAKKK-CONH2 as substrate incubated for 20 mins by Mobility shift assay
[7] = species: Homo sapiens; experiment: Selectivity index, ratio of IC50 for N-terminal GST-fused human wild type EGFR cytoplasmic domain (669 to 1210 residues) expressed in baculovirus expression system to IC50 for N-terminal GST-fused human EGFR L858R/T790M double mutant cytoplasmic domain (669 to 1210 residues) expressed in baculovirus expression system
[8] = tested on: Epidermal growth factor receptor (Homo sapiens), P00533 [L858R,T790M]; experiment: Inhibition of N-terminal GST-fused human EGFR L858R/T790M double mutant cytoplasmic domain (669 to 1210 residues) expressed in baculovirus expression system using 5-FAM-EEPLYWSFPAKKK-CONH2 as substrate at 1 uM incubated for 20 mins by Mobility shift assay
[9] = tested on: Epidermal growth factor receptor (Homo sapiens), P00533 [L858R,T790M]; experiment: Binding affinity to EGFR L858R/T790M double mutant in human H1975 cells assessed as increase in protein signal at 50 uM incubated for 4 hrs followed by heating from 40 to 64 degC for 5 mins by CETSA based western blot analysis; format: cell-based; conditions: NCI-H1975, time 245.0 min
[10] = biological target: T1, Epidermal growth factor receptor; experiment: Binding affinity to wild type EGFR in human A549 cells assessed as increase in protein signal at 50 uM incubated for 4 hrs followed by heating from 40 to 64 degC for 5 mins by CETSA based western blot analysis; format: cell-based; conditions: a549, 4.083 h, time 245 min
[11] = biological target: T1, Epidermal growth factor receptor; experiment: Inhibition of EGFR phosphorylation in human A549 cells at 1 to 10 uM incubated for 2 hrs followed by EGF stimulation for 10 mins by western blot analysis; format: cell-based; conditions: a549, 2.167 h, dose 1-10 µM, time 130 min
[12] = tested on: A549; experiment: Inhibition of colony formation in human A549 cells at 0.31 to 2.5 uM measured after 10 days by crystal violet staining based ELISA; format: cell-based; conditions: a549, 240 h, dose 0.31-2.5 µM, time 10 day
[13] = tested on: NCI-H1975; experiment: Inhibition of cell migration in human H1975 cells at 0.5 to 5 uM incubated for 48 hrs by scratch wound healing assay; format: functional, cell-based; conditions: dose 0.5-5 µM
[14] = tested on: A549; experiment: Inhibition of cell migration in human A549 cells at 5 uM incubated for 48 hrs by scratch wound healing assay; format: cell-based; conditions: a549, 48 h
[15] = biological target: T1, Epidermal growth factor receptor; experiment: Inhibition of EGFR in human A549 cells assessed as inhibition of ERK phosphorylation at 1 to 10 uM incubated for 2 hrs followed by EGF stimulation for 10 mins by western blot analysis; format: cell-based; conditions: a549, 2.167 h, dose 1-10 µM, time 130 min
[16] = tested on: Epidermal growth factor receptor (Homo sapiens), P00533 [L858R,T790M]; experiment: Inhibition of EGFR L858R/T790M double mutant in human H1975 cells assessed as inhibition of EGF-induced ERK phosphorylation at 10 uM incubated for 2 hrs followed by EGF stimulation for 10 mins by western blot analysis; format: cell-based; conditions: NCI-H1975, time 130.0 min
[17] = tested on: NCI-H1975; experiment: Inhibition of colony formation in human H1975 cells measured after 10 days by crystal violet staining based ELISA; format: functional, cell-based; conditions: dose 0.31-2.5 µM, time 10.0 day
[18] = tested on: Epidermal growth factor receptor (Homo sapiens), P00533 [L858R,T790M]; experiment: Inhibition of EGFR L858R/T790M double mutant in human H1975 cells assessed as inhibition of EGF-induced ERK phosphorylation at 3 uM incubated for 2 hrs followed by EGF stimulation for 10 mins by western blot analysis; format: cell-based; conditions: NCI-H1975, time 130.0 min
[19] = tested on: Epidermal growth factor receptor (Homo sapiens), P00533 [L858R,T790M]; experiment: Inhibition of EGF-induced phosphorylation of EGFR L858R/T790M double mutant in human H1975 cells at 1 uM incubated for 2 hrs followed by EGF stimulation for 10 mins by western blot analysis; format: cell-based; conditions: NCI-H1975, time 130.0 min
[20] = tested on: Epidermal growth factor receptor (Homo sapiens), P00533 [L858R,T790M]; experiment: Inhibition of EGFR L858R/T790M double mutant in human H1975 cells assessed as inhibition of EGF-induced ERK phosphorylation incubated for 2 hrs followed by EGF stimulation for 10 mins by western blot analysis; format: cell-based; conditions: NCI-H1975, dose 1-10 µM, time 130.0 min
[21] = tested on: Epidermal growth factor receptor (Homo sapiens), P00533 [L858R,T790M]; experiment: Inhibition of EGF-induced phosphorylation of EGFR L858R/T790M double mutant in human H1975 cells at 10 uM incubated for 2 hrs followed by EGF stimulation for 10 mins by western blot analysis; format: cell-based; conditions: NCI-H1975, time 130.0 min
[22] = tested on: Epidermal growth factor receptor (Homo sapiens), P00533 [L858R,T790M]; experiment: Inhibition of EGF-induced phosphorylation of EGFR L858R/T790M double mutant in human H1975 cells incubated for 2 hrs followed by EGF stimulation for 10 mins by western blot analysis; format: cell-based; conditions: NCI-H1975, dose 1-10 µM, time 130.0 min
[23] = tested on: Epidermal growth factor receptor (Homo sapiens), P00533 [L858R,T790M]; experiment: Inhibition of EGFR L858R/T790M double mutant in human H1975 cells assessed as inhibition of EGF-induced ERK phosphorylation at 1 uM incubated for 2 hrs followed by EGF stimulation for 10 mins by western blot analysis; format: cell-based; conditions: NCI-H1975, time 130.0 min
[24] = tested on: Epidermal growth factor receptor (Homo sapiens), P00533 [L858R,T790M]; experiment: Inhibition of EGF-induced phosphorylation of EGFR L858R/T790M double mutant in human H1975 cells at 3 uM incubated for 2 hrs followed by EGF stimulation for 10 mins by western blot analysis; format: cell-based; conditions: NCI-H1975, time 130.0 min

| SMILES | IC50 [1] [µM] | IC50 [2] [µM] | IC50 [3] [µM] | IC50 [4] [µM] | IC50 [5] [µM] | IC50 [6] [µM] | Ratio IC50 [7] | inhibition [8] | also measured |
| --- | --- | --- | --- | --- | --- | --- | --- | --- | --- |
| C=CC(=O)Nc1cccc(Oc2nc(Nc3ccc(N4CCN(C)CC4)cc3)nc3ccsc23)c1 [OLMUTINIB] | 16.5 | 9.61 | 0.026 |  |  |  |  |  |  |
| COc1cc(N2CCN(C)CC2)ccc1Nc1nc(Oc2ccc3ccc(=O)[nH]c3c2)c2sccc2n1 | 22.1 | 6.95 | 6.76 | 0.33 | > 20 | > 10 | > 30 | 74% |  |
| CN1CCN(Cc2ccc(Nc3nc(Oc4ccc5ccc(=O)[nH]c5c4)c4sccc4n3)cc2)CC1 | 19.3 | 10.8 | 7.99 | 0.2 | 8.08 | > 10 | > 50 | 83% |  |
| CCN1CCN(Cc2ccc(Nc3nc(Oc4ccc5ccc(=O)[nH]c5c4)c4sccc4n3)cc2)CC1 | 17.5 | 10.1 | 5.23 | 0.24 | 5.34 | > 10 | > 42 | 81% |  |
| CN1CCN(c2ccc(Nc3nc(Oc4ccc5ccc(=O)[nH]c5c4)c4sccc4n3)nc2)CC1 |  |  | > 20 | > 1 | > 20 | > 10 |  | 32% |  |
| O=c1ccc2ccc(Oc3nc(Nc4ccc(N5CCC(N6CCCCC6)CC5)c(F)c4)nc4ccsc34)cc2[nH]1 | 16.7 | 10.9 | 5.6 | 0.11 | 10.4 | 12.4 | 113 | 87% | Activity [9]: Active; Activity [10]: Not Active |
| O=c1ccc2ccc(Oc3nc(Nc4ccc(N5CCS(=O)(=O)CC5)cc4)nc4ccsc34)cc2[nH]1 |  |  |  |  |  | > 10 |  | 64% |  |
| CN(C)CCNc1ccc(Nc2nc(Oc3ccc4ccc(=O)[nH]c4c3)c3sccc3n2)cc1F | 16 | 10.8 | 3.2 | 0.23 | 2.92 | 14 | 61 | 81% | inhibition (INH) [11]: Not Active; Activity [12]: Toxic; Activity [9]: Active; inhibition [13]: Active; Activity [14]: Non-Toxic; inhibition (INH) [15]: Not Active; Activity [10]: Not Active; inhibition [16]: 66%; inhibition [17]: Dose-dependent effect; inhibition [18]: 53%; inhibition [19]: 34%; inhibition [20]: Dose-dependent effect; inhibition [21]: 89%; inhibition [22]: Dose-dependent effect; inhibition [23]: 5%; inhibition [24]: 43% |
| CCN1CCN(c2nc(Oc3ccc4ccc(=O)[nH]c4c3)c3sccc3n2)CC1 |  |  | > 20 | > 1 |  | > 10 |  | inactive |  |
| CN1CCN(c2nc(Oc3ccc4ccc(=O)[nH]c4c3)c3sccc3n2)CC1 |  |  |  | > 1 |  |  |  | inactive |  |
| C#Cc1cccc(Nc2ncnc3cc(OCCOC)c(OCCOC)cc23)c1 [ERLOTINIB] | > 50 | > 20 | 7.25 |  |  |  |  |  |  |
| COc1cccc(Nc2nc(Oc3ccc4ccc(=O)[nH]c4c3)c3sccc3n2)c1 |  |  |  | > 1 |  | > 10 |  | 22% |  |
| O=c1ccc2ccc(Oc3nc(Nc4ccc(N5CCC(N6CCCCC6)CC5)cc4)nc4ccsc34)cc2[nH]1 |  |  |  |  |  | > 10 |  | 83% |  |
| CN1CCN(c2ccc(Nc3nc(Oc4ccc5ccc(=O)[nH]c5c4)c4sccc4n3)cc2)CC1 | 5.78 | 4.15 | > 50 | 0.25 | 3.46 | > 10 | > 40 | 82% |  |
| O=c1ccc2ccc(Oc3nc(Nc4ccc(N5CCOCC5)cc4)nc4ccsc34)cc2[nH]1 |  |  | 12.5 |  |  | > 10 |  | 56% |  |
| O=c1ccc2ccc(Oc3nc(Nc4ccc(CN5CCOCC5)cc4)nc4ccsc34)cc2[nH]1 |  |  |  |  |  | > 10 |  | 60% |  |
| CN1CCN(c2ccc(Nc3nc(Oc4ccc5ccc(=O)[nH]c5c4)c4sccc4n3)cc2F)CC1 | > 50 | 14.5 | 8.37 |  | > 20 | > 10 |  | 82% |  |
| CCN1CCN(c2ccc(Nc3nc(Oc4ccc5ccc(=O)[nH]c5c4)c4sccc4n3)c(OC)c2)CC1 | 24.8 | 10.1 | 4.4 | 0.33 | > 20 | > 10 | > 30 | 75% |  |
| O=c1ccc2ccc(Oc3nc(Nc4ccc(F)cc4)nc4ccsc34)cc2[nH]1 |  |  |  | > 1 |  | > 10 |  | 8% |  |
| O=c1ccc2ccc(Oc3nc(Nc4ccc(N5CCOCC5)c(F)c4)nc4ccsc34)cc2[nH]1 |  |  |  | > 1 |  | > 10 |  | 39% |  |
